Data from ChEMBL document CHEMBL1201862, “PubChem BioAssay data set” (2004).
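Following 48 hours of exposure in 96-well plates, responses at five concentrations were used to interpolate endpoints linearly. The concentration for 50% growth inhibition is given as GI50.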 Activity calls are given as the source filed them. Rule as the data show it: active = GI50 up to about 1.1 µM and inactive = higher.

What was measured:
Experiment in all cases: DTP human tumour cell line panel, 48 h
DMS-273 = test system: DMS-273
HT-29 = test system: HT-29
KM-20L2 = test system: KM-20L2
M19-MEL = test system: M19-MEL
NCI-H460 = test system: NCI-H460
RPMI-8226 = test system: RPMI-8226
SK-MEL-28 = test system: SK-MEL-28
UACC-62 = test system: UACC-62
786-0 = test system: 786-0
A498 = test system: A498
OVCAR-5 = test system: OVCAR-5
NCI/ADR-RES = test system: NCI/ADR-RES

Measured: GI50

CCOC(=O)Cc1cc(OC)c(OC)cc1/C(Cl)=C(\C=O)c1ccc(OC)c(OC)c1
inactive: DMS-273 19.5 µM | HT-29 15.8 µM | KM-20L2 15.3 µM | M19-MEL 22.6 µM | NCI-H460 3.4 µM | RPMI-8226 9.75 µM | SK-MEL-28 24.2 µM | UACC-62 16.4 µM

CC1C2CC=CC(=O)[C@@]2(C)CCC12OCCO2 (some centres not stated)
inactive: 786-0 > 100 µM | A498 > 100 µM | DMS-273 > 100 µM | HT-29 > 100 µM | KM-20L2 49.9 µM | M19-MEL > 100 µM | NCI-H460 > 100 µM | OVCAR-5 > 100 µM | SK-MEL-28 > 100 µM | UACC-62 > 100 µM

O=C(CCN1CCOCC1)/C(=C/c1ccccc1)c1ccccc1
inactive: A498 10.1 µM | DMS-273 6.28 µM | HT-29 4.49 µM | KM-20L2 9.82 µM | M19-MEL 3.82 µM | NCI-H460 8.95 µM | NCI/ADR-RES 2.48 µM | OVCAR-5 16.6 µM | RPMI-8226 2 µM | SK-MEL-28 5.37 µM | UACC-62 2.49 µM

CC1C(=O)C(C)C(c2ccco2)N(N=O)C1c1ccco1 (configuration not stated)
inactive: A498 > 100 µM | DMS-273 > 100 µM | HT-29 > 100 µM | KM-20L2 > 100 µM | M19-MEL > 100 µM | NCI-H460 > 100 µM | NCI/ADR-RES > 100 µM | OVCAR-5 > 100 µM | RPMI-8226 > 100 µM | SK-MEL-28 > 100 µM | UACC-62 > 100 µM

CC1=C2C(O)C(C(C)C(=O)N(C)C)CCC2(C)C=CC1=O (configuration not stated)
inactive: A498 > 100 µM | DMS-273 > 100 µM | HT-29 > 100 µM | KM-20L2 > 100 µM | M19-MEL > 100 µM | NCI-H460 > 100 µM | NCI/ADR-RES > 100 µM | OVCAR-5 > 100 µM | RPMI-8226 > 100 µM | SK-MEL-28 > 100 µM | UACC-62 > 100 µM

CC(Sc1ccccc1)C(CO)(CO)[N+](=O)[O-] (configuration not stated)
inactive: DMS-273 16.7 µM | HT-29 16.3 µM | KM-20L2 17.2 µM | M19-MEL 16.4 µM | NCI-H460 22.8 µM | OVCAR-5 22.3 µM | RPMI-8226 18.9 µM | UACC-62 15.8 µM

OC(c1cc2ccccc2[nH]1)C(O)(c1cc2ccccc2[nH]1)c1cc2ccccc2[nH]1 (configuration not stated)
inactive: 786-0 6.89 µM | DMS-273 17.9 µM | HT-29 9.18 µM | KM-20L2 10.1 µM | M19-MEL 7.06 µM | NCI-H460 14.4 µM | OVCAR-5 57.8 µM | RPMI-8226 7.11 µM | SK-MEL-28 19.1 µM | UACC-62 5.97 µM

CC1=N/C(=C\c2ccc(N)cc2)C(=O)N1Nc1nnc(NN2C(=O)/C(=C/c3ccc(N)cc3)N=C2C)c2ccccc12
inactive: 786-0 32.5 µM | A498 > 100 µM | DMS-273 77.3 µM | HT-29 > 100 µM | KM-20L2 > 100 µM | M19-MEL 38.1 µM | NCI-H460 > 100 µM | OVCAR-5 > 100 µM | RPMI-8226 26.4 µM | SK-MEL-28 > 100 µM | UACC-62 54.5 µM

Cc1nc(O)nc(O)c1/C=C/C(=O)O
inactive: A498 > 1000 µM | DMS-273 > 1000 µM | HT-29 > 1000 µM | KM-20L2 > 1000 µM | M19-MEL > 1000 µM | NCI-H460 > 1000 µM | NCI/ADR-RES > 1000 µM | OVCAR-5 > 891 µM | RPMI-8226 > 1000 µM | SK-MEL-28 > 1000 µM | UACC-62 > 1000 µM

CCC1C(C#N)=C(O)NC(O)=C1C#N
inactive: A498 > 100 µM | DMS-273 > 100 µM | HT-29 > 100 µM | KM-20L2 > 100 µM | M19-MEL > 100 µM | NCI-H460 > 100 µM | OVCAR-5 > 100 µM | RPMI-8226 > 100 µM | SK-MEL-28 > 100 µM | UACC-62 > 100 µM

Cc1cc(NC(=S)Nc2ccccc2)c(NC(=S)Nc2ccccc2)cc1C
inactive: A498 36.1 µM | DMS-273 17 µM | HT-29 36.6 µM | KM-20L2 36.7 µM | M19-MEL 23.3 µM | NCI-H460 12.9 µM | NCI/ADR-RES 11.5 µM | OVCAR-5 > 65 µM | RPMI-8226 8.47 µM | SK-MEL-28 38.8 µM | UACC-62 18.2 µM
